From paper PMC6207618, “The GbsR Family of Transcriptional Regulators: Functional Characterization of the OpuAR Repressor” (Frontiers in Microbiology, 2018)
Where two headings read alike, the source gives them in different places.

Tests used:
B. subtilis GbsR protein = biological target: B. subtilis GbsR protein; set-up: method as in Nau-Wagner et al., 2012; conditions: purified B. subtilis GbsR, ref Nau-Wagner et al., 2012, cited from earlier work
OpuAR = OpuAR (Bacillus infantis, UniProt U5LJR5); experiment: Intrinsic tryptophan fluorescence ligand binding, purified OpuAR (wild type)
Method: Overproduction of the OpuAR repressor protein and its mutant derivatives was carried out in the E. coli B strain BL21 harboring plasmid pMP_AR1, a derivative of the expression vector pASK-IBA3plus (IBA, Göttingen, Germany) (Supplementary Table S3). […] De-repression of P-tet promoter activity is achieved by adding the synthetic inducer AHT to the growth medium. Cultures of the E. coli B. strain BL21 (pMP_AR1) were inoculated (to a OD578 of 0.1) from pre-cultures prepared in MMA ([Miller, 1972]) supplemented with 0.5% glucose (wt/vol) as the carbon source, 0.5% casamino acids (wt/vol), 1 mg l^-1 thiamine, and 1 mM MgSO4. The cultures also contained ampicillin (100 μg ml^-1) to select for the presence of plasmid pMP_AR1 (or its mutant derivatives) and they were grown at 37°C. When the main cultures reached an OD578 of 0.5, enhanced expression of the opuAR gene from P-tet was induced by the addition of AHT to a final concentration of 0.2-μg ml^-1. Cells were grown for an additional 2 h, before they were harvested by centrifugation (at 4°C at 4,800 × g for 20 min). […]
(§1) The dissociation constants of OpuAR for choline and glycine betaine were determined by intrinsic tryptophan fluorescence spectroscopy as described previously using a Carry Eclips fluorescence spectrometer (Varian, Surry, United Kingdom) ([Pittelkow et al., 2011]; [Nau-Wagner et al., 2012]).

OpuAR R^100F = OpuAR R^100F (Bacillus infantis, UniProt U5LJR5, R100F); experiment: biochemical; format: binding
Source text: (§2) The coding region of opuAR was amplified from chromosomal DNA of B. infantis NRRL B-14911 ([Massilamany et al., 2016]) using primers opuAR fwd and opuAR rev (Supplementary Table S2) harboring in their 5′-regions recognition sites for the restriction enzyme BsaI. The resulting PCR DNA fragment was then cut with BsaI and cloned into the expression vector pASK-IBA3plus (IBA, Göttingen, Germany) that had been linearized with BsaI; the obtained plasmids were named pMP_AR1 (Supplementary Table S3). Mutant derivatives of the opuAR gene were obtained using the Q5 Site-Directed Mutagenesis Kit (New England BioLabs, Ipswich, MA, United States) and a set of customized mutagenic primers (Supplementary Table S2). The Sanger sequencing method was used to verify the DNA sequence of the chromosomal insert of the parental opuAR^+ overexpression plasmid pMP_AR1 and of its derivatives carrying mutant opuAR genes. DNA sequencing was conducted by Microsynth (Lindau, Germany).
(§3) Overproduction of the OpuAR repressor protein and its mutant derivatives was carried out in the E. coli B strain BL21 harboring plasmid pMP_AR1, a derivative of the expression vector pASK-IBA3plus (IBA, Göttingen, Germany) (Supplementary Table S3). […] De-repression of P-tet promoter activity is achieved by adding the synthetic inducer AHT to the growth medium. Cultures of the E. coli B. strain BL21 (pMP_AR1) were inoculated (to a OD578 of 0.1) from pre-cultures prepared in MMA ([Miller, 1972]) supplemented with 0.5% glucose (wt/vol) as the carbon source, 0.5% casamino acids (wt/vol), 1 mg l^-1 thiamine, and 1 mM MgSO4. The cultures also contained ampicillin (100 μg ml^-1) to select for the presence of plasmid pMP_AR1 (or its mutant derivatives) and they were grown at 37°C. When the main cultures reached an OD578 of 0.5, enhanced expression of the opuAR gene from P-tet was induced by the addition of AHT to a final concentration of 0.2-μg ml^-1. Cells were grown for an additional 2 h, before they were harvested by centrifugation (at 4°C at 4,800 × g for 20 min). The cell pellets were re-suspended in lysis buffer [100 mM Tris-HCl (pH 7.5), 2.5% glycerol, 2 mM dithiothreitol, 0.4 mM EDTA, 0.5 mM phenylmethylsulfonyl fluoride (PMSF), 0.5 mM benzamidine] and the cells were then disrupted by passing them through a French pressure cell as detailed previously ([Nau-Wagner et al., 2012]). Cleared cell lysates were prepared by ultra-centrifugation (at 4°C at 100,000 × g for 35 min) before the OpuAR-Strep-tag II recombinant protein was purified by affinity chromatography ([Nau-Wagner et al., 2012]) on streptactin affinity resin according to the manufacturers specifications (IBA, Göttingen, Germany). Mutant derivatives of the OpuAR protein were overproduced and purified as described above for the wild-type protein.
as §1

OpuAR W^93F = OpuAR W^93F (Bacillus infantis, UniProt U5LJR5, W93F); experiment: biochemical; format: binding
Source text: as §2, §3, §1

OpuAR N^96F = OpuAR N^96F (Bacillus infantis, UniProt U5LJR5, N96F); experiment: biochemical; format: binding
Source text: as §2, §3, §1

OpuAR Y^94F = OpuAR Y^94F (Bacillus infantis, UniProt U5LJR5, Y94F); experiment: biochemical; format: binding
Source text: as §2, §3, §1

OpuAR Y^94F/R^100F = OpuAR Y^94F/R^100F (Bacillus infantis, UniProt U5LJR5, R100F/Y94F); experiment: biochemical; format: binding; conditions: for Improvement of binding (Kd) relative to wild-type OpuAR: OpuAR double variant Y94F/R100F vs wild type
Source text: as §2, §3, §1

B. infantis NRRL B-14911 = experiment: Growth of B. infantis with glycine betaine as sole carbon source; format: cell-based, Bacillus infantis; conditions: basal medium, 33.24 mM as sole carbon source, 46 h, 37°C
Method: Supplementary Figure S7 │B. infantis cannot use glycine betaine as carbon source.
Cultures of B. infantis NRRL B-14911were grown in basal medium supplemented with either glucose (27.7 mM final concentration) or glycine betaine (33.24 mM final concentration) as the sole carbon source. Growth yields were measured after 46 hours of incubation at 37 °C.
Cultures without the addition of a carbon source served as control.
(1 picture or pasted object on this page, not shown here)

[1] = system: opuAA-treA reporter activity; experiment: opuAA-treA reporter fusion TreA enzyme activity assay; format: cell-based, Bacillus subtilis; conditions: strain STHB10, SMM with 1.2 M NaCl, dose-response 5 to 300 μM

Chain of OpuAR Y^94F/R^100F (U5LJR5 entry or part of it Y94F/R100F): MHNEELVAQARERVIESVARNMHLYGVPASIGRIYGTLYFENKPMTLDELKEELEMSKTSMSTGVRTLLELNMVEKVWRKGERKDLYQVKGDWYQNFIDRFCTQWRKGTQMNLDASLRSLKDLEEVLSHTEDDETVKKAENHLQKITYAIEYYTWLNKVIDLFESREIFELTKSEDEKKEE
Chain of OpuAR (U5LJR5 entry or part of it): as the sequence (U5LJR5 entry or part of it Y94F/R100F) above
Chain of OpuAR N^96F (U5LJR5 entry or part of it N96F): as the sequence (U5LJR5 entry or part of it Y94F/R100F) above
Chain of OpuAR R^100F (U5LJR5 entry or part of it R100F): as the sequence (U5LJR5 entry or part of it Y94F/R100F) above
Chain of OpuAR W^93F (U5LJR5 entry or part of it W93F): as the sequence (U5LJR5 entry or part of it Y94F/R100F) above
Chain of OpuAR Y^94F (U5LJR5 entry or part of it Y94F): as the sequence (U5LJR5 entry or part of it Y94F/R100F) above

C[N+](C)(C)CCO [choline]
Kd (B. subtilis GbsR protein; intrinsic Trp-fluorescence): 165 ± 15 µM
Kd (OpuAR): 193 ± 40 µM
Kd (OpuAR R^100F): 100 ± 15 µM
Kd (OpuAR W^93F): 210 ± 33 µM
Kd (OpuAR N^96F): 262 ± 34 µM
Kd (OpuAR Y^94F): 240 ± 33 µM
Kd (OpuAR Y^94F/R^100F): 61 ± 11 µM
Improvement of binding (Kd) relative to wild-type OpuAR (OpuAR Y^94F/R^100F): about threefold

C[N+](C)(C)CC(=O)[O-] [glycine betaine]
Binding by GbsR (B. subtilis GbsR protein): does not bind
Kd (OpuAR; purified OpuAR-Strep-tag II wild type, 5 μM protein, read-out: Kd): 301 ± 24 µM
Use as carbon source / nutrient (growth yield) (B. infantis NRRL B-14911): cannot use
Kd (OpuAR R^100F; OpuAR variant R100F, read-out: Kd): 303 ± 40 µM
Kd (OpuAR W^93F; OpuAR variant W93F, read-out: Kd): 224 ± 24 µM
Kd (OpuAR N^96F; OpuAR variant N96F, read-out: Kd): 254 ± 39 µM
Kd (OpuAR Y^94F; OpuAR variant Y94F, read-out: Kd): 293 ± 37 µM
Improvement of binding (Kd) relative to wild-type OpuAR (OpuAR Y^94F/R^100F): fourfold
Kd (OpuAR Y^94F/R^100F; OpuAR double variant Y94F/R100F, read-out: Kd): 70 ± 12 µM
Concentration in growth medium triggering a noticeable increase in transcriptional activity [1]: 5 µM
Concentration sufficient to fully induce expression of the reporter fusion [1]: 75 µM
